How the values were obtained:
Assay in all cases: relative viability (nuclei count vs DMSO), 5 days (fraction); higher = more cells survive
Seliciclib = compound: CC[C@H](CO)Nc1nc(NCc2ccccc2)c2ncn(C(C)C)c2n1 [Seliciclib]
Outline: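 Lung cancer cell lines in 1536-well plates were kept overnight at 37 °C, then pinned with five library-drug doses (not always all listed) spaced by √10 on vehicle-anchored plates. After 5 days without medium change, cells were fixed, permeabilised and Hoechst-stained in one step, imaged at 4×, and nuclei were counted with MetaXpress. Viability is treated-well nuclei divided by vehicle-well nuclei, taken as the median over plates. Plates passed only with control CV below 25% and at least one doubling.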

Seliciclib + Tozasertib = compound: CC[C@H](CO)Nc1nc(NCc2ccccc2)c2ncn(C(C)C)c2n1 [Seliciclib] + Cc1cc(Nc2cc(N3CCN(C)CC3)nc(Sc3ccc(NC(=O)C4CC4)cc3)n2)n[nH]1 [Tozasertib] (partner 0.1 µM)
Outline: (§1)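 Relative viability is defined as nuclei in treated wells over nuclei in vehicle wells. Duplicate plates were run and medians reported. Lung cancer cell lines in 1536-well plates were dosed by pin tool one day after seeding, with one drug or with a fixed anchor-drug dose plus five library-drug doses (not always all listed) in √10 steps, and nuclei were counted after 5 days.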

Seliciclib + Luminespib = compound: CC[C@H](CO)Nc1nc(NCc2ccccc2)c2ncn(C(C)C)c2n1 [Seliciclib] + CCNC(=O)c1noc(-c2cc(C(C)C)c(O)cc2O)c1-c1ccc(CN2CCOCC2)cc1 [Luminespib] (partner 0.01 µM)
Outline: as §1

Seliciclib + OSI-027 = compound: CC[C@H](CO)Nc1nc(NCc2ccccc2)c2ncn(C(C)C)c2n1 [Seliciclib] + COc1cccc2cc(-c3nc([C@H]4CC[C@H](C(=O)O)CC4)n4ncnc(N)c34)[nH]c12 [OSI-027] (partner 0.5 µM)
Outline: as §1

Seliciclib + Foretinib = compound: CC[C@H](CO)Nc1nc(NCc2ccccc2)c2ncn(C(C)C)c2n1 [Seliciclib] + COc1cc2c(Oc3ccc(NC(=O)C4(C(=O)Nc5ccc(F)cc5)CC4)cc3F)ccnc2cc1OCCCN1CCOCC1 [Foretinib] (partner 0.25 µM)
Outline: as §1

Seliciclib + Phenformin = compound: CC[C@H](CO)Nc1nc(NCc2ccccc2)c2ncn(C(C)C)c2n1 [Seliciclib] + N=C(N)NC(=N)NCCc1ccccc1 [Phenformin] (partner 250 µM)
Outline: as §1

Seliciclib + Dasatinib = compound: CC[C@H](CO)Nc1nc(NCc2ccccc2)c2ncn(C(C)C)c2n1 [Seliciclib] + Cc1nc(Nc2ncc(C(=O)Nc3c(C)cccc3Cl)s2)cc(N2CCN(CCO)CC2)n1 [Dasatinib] (partner 0.075 µM)
Outline: as §1

Seliciclib + Bortezomib = compound: CC[C@H](CO)Nc1nc(NCc2ccccc2)c2ncn(C(C)C)c2n1 [Seliciclib] + CC(C)C[C@H](NC(=O)[C@H](Cc1ccccc1)NC(=O)c1cnccn1)B(O)O [Bortezomib] (partner 0.002 µM)
Outline: as §1

Seliciclib + Olaparib = compound: CC[C@H](CO)Nc1nc(NCc2ccccc2)c2ncn(C(C)C)c2n1 [Seliciclib] + O=C(c1cc(Cc2n[nH]c(=O)c3ccccc23)ccc1F)N1CCN(C(=O)C2CC2)CC1 [Olaparib] (partner 8 µM)
Outline: as §1

Seliciclib + Lapatinib = compound: CC[C@H](CO)Nc1nc(NCc2ccccc2)c2ncn(C(C)C)c2n1 [Seliciclib] + CS(=O)(=O)CCNCc1ccc(-c2ccc3ncnc(Nc4ccc(OCc5cccc(F)c5)c(Cl)c4)c3c2)o1 [Lapatinib] (partner 2 µM)
Outline: as §1

Seliciclib + Crizotinib = compound: CC[C@H](CO)Nc1nc(NCc2ccccc2)c2ncn(C(C)C)c2n1 [Seliciclib] + C[C@@H](Oc1cc(-c2cnn(C3CCNCC3)c2)cnc1N)c1c(Cl)ccc(F)c1Cl [Crizotinib] (partner 1 µM)
Outline: as §1

Seliciclib + Navitoclax = compound: CC[C@H](CO)Nc1nc(NCc2ccccc2)c2ncn(C(C)C)c2n1 [Seliciclib] + CC1(C)CCC(c2ccc(Cl)cc2)=C(CN2CCN(c3ccc(C(=O)NS(=O)(=O)c4ccc(N[C@H](CCN5CCOCC5)CSc5ccccc5)c(S(=O)(=O)C(F)(F)F)c4)cc3)CC2)C1 [Navitoclax] (partner 0.5 µM)
Outline: as §1

Seliciclib + Linsitinib = compound: CC[C@H](CO)Nc1nc(NCc2ccccc2)c2ncn(C(C)C)c2n1 [Seliciclib] + C[C@]1(O)C[C@@H](c2nc(-c3ccc4ccc(-c5ccccc5)nc4c3)c3c(N)nccn32)C1 [Linsitinib] (partner 1 µM)
Outline: as §1

Seliciclib + Alpelisib = compound: CC[C@H](CO)Nc1nc(NCc2ccccc2)c2ncn(C(C)C)c2n1 [Seliciclib] + Cc1nc(NC(=O)N2CCC[C@H]2C(N)=O)sc1-c1ccnc(C(C)(C)C(F)(F)F)c1 [Alpelisib] (partner 2 µM)
Outline: as §1

Seliciclib + Pictilisib = compound: CC[C@H](CO)Nc1nc(NCc2ccccc2)c2ncn(C(C)C)c2n1 [Seliciclib] + CS(=O)(=O)N1CCN(Cc2cc3nc(-c4cccc5[nH]ncc45)nc(N4CCOCC4)c3s2)CC1 [Pictilisib] (partner 1 µM)
Outline: as §1

Cell Line NCI-H1623 has a relative viability (Seliciclib; 0.08 µM) of 0.968, a relative viability (Seliciclib; 0.253 µM) of 0.867 and a relative viability (Seliciclib; 0.8 µM) of 0.868. For the same cell line, the relative viability (Seliciclib; 2.53 µM) was 1.01, the relative viability (Seliciclib; 8 µM) was 0.81 and the relative viability (Seliciclib + Tozasertib; first compound 0.08 µM) was 0.414. It also gave a relative viability (Seliciclib + Tozasertib; first compound 0.253 µM) of 0.317, a relative viability (Seliciclib + Tozasertib; first compound 0.8 µM) of 0.363 and a relative viability (Seliciclib + Tozasertib; first compound 2.53 µM) of 0.418. For the same cell line, the relative viability (Seliciclib + Tozasertib; first compound 8 µM) was 0.414, the relative viability (Seliciclib + Luminespib; first compound 0.08 µM) was 0.66 and the relative viability (Seliciclib + Luminespib; first compound 0.253 µM) was 0.367. It also gave a relative viability (Seliciclib + Luminespib; first compound 0.8 µM) of 0.568, a relative viability (Seliciclib + Luminespib; first compound 2.53 µM) of 0.558 and a relative viability (Seliciclib + Luminespib; first compound 8 µM) of 0.512. It also gave a relative viability (Seliciclib + OSI-027; first compound 0.08 µM) of 0.425, a relative viability (Seliciclib + OSI-027; first compound 0.253 µM) of 0.449 and a relative viability (Seliciclib + OSI-027; first compound 0.8 µM) of 0.396. For the same cell line, the relative viability (Seliciclib + OSI-027; first compound 2.53 µM) was 0.415, the relative viability (Seliciclib + OSI-027; first compound 8 µM) was 0.415 and the relative viability (Seliciclib + Foretinib; first compound 0.08 µM) was 0.91. For the same cell line, the relative viability (Seliciclib + Foretinib; first compound 0.253 µM) was 0.773, the relative viability (Seliciclib + Foretinib; first compound 0.8 µM) was 0.716 and the relative viability (Seliciclib + Foretinib; first compound 2.53 µM) was 0.754. It also gave a relative viability (Seliciclib + Foretinib; first compound 8 µM) of 0.864, a relative viability (Seliciclib + Phenformin; first compound 0.08 µM) of 0.609 and a relative viability (Seliciclib + Phenformin; first compound 0.253 µM) of 0.545. The relative viability (Seliciclib + Phenformin; first compound 0.8 µM) was 0.502, the relative viability (Seliciclib + Phenformin; first compound 2.53 µM) was 0.507 and the relative viability (Seliciclib + Phenformin; first compound 8 µM) was 0.538. The relative viability (Seliciclib + Dasatinib; first compound 0.08 µM) was 0.562, the relative viability (Seliciclib + Dasatinib; first compound 0.253 µM) was 0.479 and the relative viability (Seliciclib + Dasatinib; first compound 0.8 µM) was 0.498. The relative viability (Seliciclib + Dasatinib; first compound 2.53 µM) was 0.53 and the relative viability (Seliciclib + Dasatinib; first compound 8 µM) was 0.603.
Calu-6 showed a relative viability (Seliciclib; 0.08 µM) of 0.991, a relative viability (Seliciclib; 0.253 µM) of 1.13 and a relative viability (Seliciclib; 0.8 µM) of 1.01. It also gave a relative viability (Seliciclib; 2.53 µM) of 1.01, a relative viability (Seliciclib; 8 µM) of 0.891 and a relative viability (Seliciclib + Bortezomib; first compound 0.08 µM) of 0.969. The relative viability (Seliciclib + Bortezomib; first compound 0.253 µM) was 0.938, the relative viability (Seliciclib + Bortezomib; first compound 0.8 µM) was 1.12 and the relative viability (Seliciclib + Bortezomib; first compound 2.53 µM) was 1.01. It also gave a relative viability (Seliciclib + Bortezomib; first compound 8 µM) of 0.989, a relative viability (Seliciclib + Olaparib; first compound 0.08 µM) of 0.602 and a relative viability (Seliciclib + Olaparib; first compound 0.253 µM) of 0.658. For the same cell line, the relative viability (Seliciclib + Olaparib; first compound 0.8 µM) was 0.565, the relative viability (Seliciclib + Olaparib; first compound 2.53 µM) was 0.624 and the relative viability (Seliciclib + Olaparib; first compound 8 µM) was 0.532. For the same cell line, the relative viability (Seliciclib + Lapatinib; first compound 0.08 µM) was 0.993, the relative viability (Seliciclib + Lapatinib; first compound 0.253 µM) was 1.13 and the relative viability (Seliciclib + Lapatinib; first compound 0.8 µM) was 1.08. It also gave a relative viability (Seliciclib + Lapatinib; first compound 2.53 µM) of 1.08, a relative viability (Seliciclib + Lapatinib; first compound 8 µM) of 0.934 and a relative viability (Seliciclib + Foretinib; first compound 0.08 µM) of 0.847. It also gave a relative viability (Seliciclib + Foretinib; first compound 0.253 µM) of 0.686, a relative viability (Seliciclib + Foretinib; first compound 0.8 µM) of 0.945 and a relative viability (Seliciclib + Foretinib; first compound 2.53 µM) of 0.892. It also gave a relative viability (Seliciclib + Foretinib; first compound 8 µM) of 0.733, a relative viability (Seliciclib + Crizotinib; first compound 0.08 µM) of 0.773 and a relative viability (Seliciclib + Crizotinib; first compound 0.253 µM) of 0.846. The relative viability (Seliciclib + Crizotinib; first compound 0.8 µM) was 0.825, the relative viability (Seliciclib + Crizotinib; first compound 2.53 µM) was 0.956 and the relative viability (Seliciclib + Crizotinib; first compound 8 µM) was 0.668. It also gave a relative viability (Seliciclib + Navitoclax; first compound 0.08 µM) of 0.796, a relative viability (Seliciclib + Navitoclax; first compound 0.253 µM) of 0.933 and a relative viability (Seliciclib + Navitoclax; first compound 0.8 µM) of 0.939. It also gave a relative viability (Seliciclib + Navitoclax; first compound 2.53 µM) of 0.895, a relative viability (Seliciclib + Navitoclax; first compound 8 µM) of 0.825 and a relative viability (Seliciclib + Linsitinib; first compound 0.08 µM) of 1.05. The relative viability (Seliciclib + Linsitinib; first compound 0.253 µM) was 0.996, the relative viability (Seliciclib + Linsitinib; first compound 0.8 µM) was 0.95 and the relative viability (Seliciclib + Linsitinib; first compound 2.53 µM) was 1.01. For the same cell line, the relative viability (Seliciclib + Linsitinib; first compound 8 µM) was 0.899, the relative viability (Seliciclib + Alpelisib; first compound 0.08 µM) was 0.942 and the relative viability (Seliciclib + Alpelisib; first compound 0.253 µM) was 0.993. The relative viability (Seliciclib + Alpelisib; first compound 0.8 µM) was 1.04, the relative viability (Seliciclib + Alpelisib; first compound 2.53 µM) was 1.01 and the relative viability (Seliciclib + Alpelisib; first compound 8 µM) was 0.809. For the same cell line, the relative viability (Seliciclib + Pictilisib; first compound 0.08 µM) was 0.93, the relative viability (Seliciclib + Pictilisib; first compound 0.253 µM) was 0.969 and the relative viability (Seliciclib + Pictilisib; first compound 0.8 µM) was 0.937. It also gave a relative viability (Seliciclib + Pictilisib; first compound 2.53 µM) of 0.917 and a relative viability (Seliciclib + Pictilisib; first compound 8 µM) of 0.759.

Reference: the supplement of paper PMC10307832
